Results reported in patent publication US20220039384A1, “SELECTIVE WEED CONTROL WITH HALAUXIFEN OR 4-AMINO-3-CHLORO-5-FLUORO-6-(4-CHLORO-2-FLUORO-3-METHOXYPHENYL) PYRIDINE-2-CARBOXYLIC ACID OR DERIVATIVES THEREOF IN VINEYARDS OR PERENNIAL CROPS” (Corteva Agriscience LLC, priority 2013, published 2022).

Key:
Format in all cases: in vivo
[1] = system: commercially relevant broadleaf and grass weeds; assay: Pre- and post-emergence weed control, general statement; settings: application rate of 2.5 to 40 g ae/ha; pre-emergence and post-emergence application
Text: (§1) Additional examples of application rates for Compound I as a pre-emergence and post-emergence application include 0.25 to 50 g ae/ha, 0.25 to 45 g ae/ha, 0.25 to 40 g ae/ha, 0.25 to 35 g ae/ha, 0.25 to 30 g ae/ha, 0.25 to 25 g ae/ha, 0.25 to 20 g ae/ha, 0.25 to 15 g ae/ha, 0.25 to 10 g ae/ha, 0.25 to 5 g ae/ha, 2.5 to 50 g ae/ha, 5 to 50 g ae/ha, 10 to 50 g ae/ha, 15 to 50 g ae/ha, 20 to 50 g ae/ha, 25 to 50 g ae/ha, 30 to 50 g ae/ha, 35 to 50 g ae/ha, 40 to 50 g ae/ha, 45 to 50 g ae/ha, 5 to 40 g ae/ha, 10 to 40 g ae/ha, 15 to 40 g ae/ha, 20 to 40 g ae/ha, 25 to 40 g ae/ha, 30 to 40 g ae/ha, 35 to 40 g ae/ha, 2.5 to 35 g ae/ha, 2.5 to 30 g ae/ha, 2.5 to 25 g ae/ha, 2.5 to 20 g ae/ha, 2.5 to 15 g ae/ha, 2.5 to 10 g ae/ha, 2.5 to 5 g ae/ha, 5 to 35 g ae/ha, 10 to 30 g ae/ha, 15 to 25 g ae/ha, and 15 to 20 g ae/ha. Further examples of application rates for Compound I as a pre-emergence and post-emergence application include 0.25 g ae/ha, 0.5 g ae/ha, 0.75 g ae/ha, 1 g ae/ha, 1.25 g ae/ha, 1.5 g ae/ha, 1.75 g ae/ha, 2 g ae/ha, 2.25 g ae/ha, 2.5 g ae/ha, 3 g ae/ha, 4 g ae/ha, 5 g ae/ha, 6 g ae/ha, 7 g ae/ha, 8 g ae/ha, 9 g ae/ha, 10 g ae/ha, 12 g ae/ha, 14 g ae/ha, 16 g ae/ha, 18 g ae/ha, 20 g ae/ha, 22 g ae/ha, 24 g ae/ha, 26 g ae/ha, 28 g ae/ha, 30 g ae/ha, 32 g ae/ha, 34 g ae/ha, 36 g ae/ha, 38 g ae/ha, 40 g ae/ha, 42 g ae/ha, 44 g ae/ha, 46 g ae/ha, 48 g ae/ha, and 50 g ae/ha. […]

[2] = system: grapevines and perennial crops; assay: Crop safety, general statement; settings: post-emergence application rates of ≤20 g ae/ha; dormant application or spring application directed under the crops
Text: as §1

[3] = system: AMSIN (Amsinckia intermedia, coast fiddleneck); assay: Field trial, pre-emergence application (February), California vineyards: visual weed control
Text: (§2) As used herein, selective pre- and post-emergence control of undesirable vegetation means preventing, reducing, killing, or otherwise adversely modifying the development of the undesirable vegetation in the presence of crop plants with limited adverse effect on the crop plants. For example, a broadleaf weed control of 80% (rated visually) with crop injury of less than or equal to 20% (rated visually) would constitute selective control. In some embodiments the adverse effect on crop plants is limited to less than 10% visually rated crop injury. Visual crop injury is a composite rating accounting for all phytotoxic effects including chlorosis, necrosis, growth inhibition, epinasty, delays in maturity and seed or fruit deformity. Visual weed control is a composite rating accounting for reductions in pest plant biomass and/or stand reduction.
(§3) Small plot research experiments were conducted in Fresno, Calif., USA to evaluate the pre-emergence and post-emergence herbicidal weed control activity and the vines crop tolerance to pre-emergence and post-emergence application of Compound I and Compound II to the weeds. Application water volume of 100 to 187 liters per hectare (L/ha) was used for all experiments. All treatments were applied with a standard small plot carbon dioxide (CO2) backpack sprayer. All treatments were tank-mixed with Crop Oil Concentrate (COC), a well known adjuvant, at 2.34 L/ha. Experimental emulsifiable concentrate (EC) formulations were used for Compounds I and II. The dimethylammonium (DMA) salt of glyphosate was used in all trials. Pindar® GT is a commercial formulation containing a pre-mix of penoxsulam+oxyfluorfen (10+476 grams of active ingredient per liter (g ai/L), respectively). Vine crop stage was dormant (no leaves on the vines during the winter) or early spring growth at the time of Compound I or Compound II application. Generally, weeds were not emerged for the pre-emergence treatments or were at the two to six-leaf stage at the time of the post-emergence herbicide application.
(§4) Tables 1, 2 and 6 provide weed control results from pre-emergence applications of Compounds I and/or II prior to weed emergence; Tables 4, 7 and 8 provide weed control results from post-emergence applications of Compounds I and/or II applied to actively growing weeds; Tables 3 and 5 provide vine response data from pre-emergence and post-emergence applications of Compound I respectively.

[4] = system: CAPBP (Capsella bursa-pastoris, Shepherd's purse); assay: as above
Text: as §2, §3, §4

[5] = system: CLNCM (Calandrinia ciliata, rock purslane); assay: as above
Text: as §2, §3, §4

[6] = system: AMSIN (Amsinckia intermedia, coast fiddleneck); assay: Field trial, post-emergence directed dormant application (December), California vineyards: visual weed control
Text: as §2, §3, §4

[7] = system: AMARE (Amaranthus retroflexus, redroot pigweed); assay: as above
Text: as §2, §3, §4

[8] = system: CHEAL (Chenopodium album, common lambsquarters); assay: as above
Text: as §2, §3, §4

[9] = system: CAPBP (Capsella bursa-pastoris, Shepherd's purse); assay: as above
Text: as §2, §3, §4

[10] = system: IPOSS (Ipomoea spp, morningglory); assay: as above
Text: as §2, §3, §4

[11] = system: EROCI (Erodium cicutarium, redstem filaree); assay: Field trial, post-emergence directed spring application (March), California vineyards: visual weed control
Text: as §2, §3, §4

[12] = system: STEME (Stellaria media, common chickweed); assay: as above
Text: as §2, §3, §4

[13] = system: MALPA (Malva parviflora, smallflower malva); assay: as above
Text: as §2, §3, §4

[14] = system: MEDPO (Medicago polymorpha, California burclover); assay: as above
Text: as §2, §3, §4

## COc1c(Cl)ccc(-c2cc(N)c(Cl)c(C(=O)O)n2)c1F [Compound I, 4-amino-3-chloro-6-(4-chloro-2-fluoro-3-methoxyphenyl)pyridine-2-carboxylic acid]
[1]
  efficacy on commercially relevant broadleaf and grass weeds: highly efficacious
[2]
  crop injury to grapevines and perennial crops: little to no crop injury

## O=C(O)CNCP(=O)(O)O [Glyphosate, glyphosate, reference compound]
[3]; 1680 g ae/ha
  % Visual Control 48 DAA AMSIN: 0%
[4]; 1680 g ae/ha
  % Visual Control 48 DAA CAPBP: 0%
[5]; 1680 g ae/ha
  % Visual Control 48 DAA CLNCM: 0%
[6]; 1680 g ae/ha
  % Visual Control 57 DAA AMSIN: 100%
[7]; 1680 g ae/ha
  % Visual Control 57 DAA AMARE: 0%
[8]; 1680 g ae/ha
  % Visual Control 57 DAA CHEAL: 95%
[9]; 1680 g ae/ha
  % Visual Control 57 DAA CAPBP: 99.3%
[10]; 1680 g ae/ha
  % Visual Control 57 DAA IPOSS: 51.7%
[11]; 1680 g ae/ha
  % Visual Control 59 DAA EROCI: 91%
[12]; 1680 g ae/ha
  % Visual Control 59 DAA STEME: 93.3%
[13]; 1680 g ae/ha
  % Visual Control 59 DAA MALPA: 86.7%
[14]; 1680 g ae/ha
  % Visual Control 59 DAA MEDPO: 100%

## COc1c(Cl)ccc(-c2nc(C(=O)OCc3ccccc3)c(Cl)c(N)c2F)c1F [II-Bn, benzyl 4-amino-3-chloro-5-fluoro-6-(4-chloro-2-fluoro-3-methoxyphenyl)pyridine-2-carboxylate]
[3]; 5 g ai/ha
  % Visual Control 48 DAA AMSIN: 0%
[3]; 10 g ai/ha
  % Visual Control 48 DAA AMSIN: 33.3%
[3]; 20 g ai/ha
  % Visual Control 48 DAA AMSIN: 40%
[3]; 40 g ai/ha
  % Visual Control 48 DAA AMSIN: 87.3%
[3]; 50 g ai/ha
  % Visual Control 48 DAA AMSIN: 84.3%
[4]; 5 g ai/ha
  % Visual Control 48 DAA CAPBP: 0%
[4]; 10 g ai/ha
  % Visual Control 48 DAA CAPBP: 60%
[4]; 20 g ai/ha
  % Visual Control 48 DAA CAPBP: 76.7%
[4]; 40 g ai/ha
  % Visual Control 48 DAA CAPBP: 100%
[4]; 50 g ai/ha
  % Visual Control 48 DAA CAPBP: 96.7%
[5]; 5 g ai/ha
  % Visual Control 48 DAA CLNCM: 0%
[5]; 10 g ai/ha
  % Visual Control 48 DAA CLNCM: 40%
[5]; 20 g ai/ha
  % Visual Control 48 DAA CLNCM: 56.7%
[5]; 40 g ai/ha
  % Visual Control 48 DAA CLNCM: 90%
[5]; 50 g ai/ha
  % Visual Control 48 DAA CLNCM: 96.7%
[6]; 5 g ai/ha
  % Visual Control 57 DAA AMSIN: 56.7%
[6]; 10 g ai/ha
  % Visual Control 57 DAA AMSIN: 96.7%
[6]; 20 g ai/ha
  % Visual Control 57 DAA AMSIN: 86.7%
[6]; 40 g ai/ha
  % Visual Control 57 DAA AMSIN: 100%
[6]; 50 g ai/ha
  % Visual Control 57 DAA AMSIN: 100%
[7]; 5 g ai/ha
  % Visual Control 57 DAA AMARE: 100%
[7]; 10 g ai/ha
  % Visual Control 57 DAA AMARE: 95%
[7]; 20 g ai/ha
  % Visual Control 57 DAA AMARE: 100%
[7]; 40 g ai/ha
  % Visual Control 57 DAA AMARE: 100%
[7]; 50 g ai/ha
  % Visual Control 57 DAA AMARE: 100%
[8]; 5 g ai/ha
  % Visual Control 57 DAA CHEAL: 96.7%
[8]; 10 g ai/ha
  % Visual Control 57 DAA CHEAL: 100%
[8]; 20 g ai/ha
  % Visual Control 57 DAA CHEAL: 100%
[8]; 40 g ai/ha
  % Visual Control 57 DAA CHEAL: 100%
[8]; 50 g ai/ha
  % Visual Control 57 DAA CHEAL: 100%
[9]; 5 g ai/ha
  % Visual Control 57 DAA CAPBP: 100%
[9]; 10 g ai/ha
  % Visual Control 57 DAA CAPBP: 100%
[9]; 20 g ai/ha
  % Visual Control 57 DAA CAPBP: 100%
[9]; 40 g ai/ha
  % Visual Control 57 DAA CAPBP: 100%
[9]; 50 g ai/ha
  % Visual Control 57 DAA CAPBP: 100%
[10]; 5 g ai/ha
  % Visual Control 57 DAA IPOSS: 55%
[10]; 10 g ai/ha
  % Visual Control 57 DAA IPOSS: 46.7%
[10]; 20 g ai/ha
  % Visual Control 57 DAA IPOSS: 66.7%
[10]; 40 g ai/ha
  % Visual Control 57 DAA IPOSS: 66.7%
[10]; 50 g ai/ha
  % Visual Control 57 DAA IPOSS: 97.3%
[11]; 5 g ai/ha
  % Visual Control 59 DAA EROCI: 81.7%
[11]; 10 g ai/ha
  % Visual Control 59 DAA EROCI: 85%
[11]; 20 g ai/ha
  % Visual Control 59 DAA EROCI: 85%
[11]; 40 g ai/ha
  % Visual Control 59 DAA EROCI: 94.3%
[11]; 50 g ai/ha
  % Visual Control 59 DAA EROCI: 96%
[12]; 5 g ai/ha
  % Visual Control 59 DAA STEME: 70%
[12]; 10 g ai/ha
  % Visual Control 59 DAA STEME: 75%
[12]; 20 g ai/ha
  % Visual Control 59 DAA STEME: 84.3%
[12]; 40 g ai/ha
  % Visual Control 59 DAA STEME: 94.3%
[12]; 50 g ai/ha
  % Visual Control 59 DAA STEME: 97.3%
[13]; 5 g ai/ha
  % Visual Control 59 DAA MALPA: 61.9%
[13]; 10 g ai/ha
  % Visual Control 59 DAA MALPA: 83.4%
[13]; 20 g ai/ha
  % Visual Control 59 DAA MALPA: 90%
[13]; 40 g ai/ha
  % Visual Control 59 DAA MALPA: 95%
[13]; 50 g ai/ha
  % Visual Control 59 DAA MALPA: 96.7%
[14]; 5 g ai/ha
  % Visual Control 59 DAA MEDPO: 100%
[14]; 10 g ai/ha
  % Visual Control 59 DAA MEDPO: 100%
[14]; 20 g ai/ha
  % Visual Control 59 DAA MEDPO: 100%
[14]; 40 g ai/ha
  % Visual Control 59 DAA MEDPO: 100%
[14]; 50 g ai/ha
  % Visual Control 59 DAA MEDPO: 100%
